Some test systems named below: ACHN renal; BT-549 breast; CCRF-CEM leukemia; COLO 205 colon; HL-60(TB) leukemia; MALME-3M melanoma; MCF7 breast; NCI-H23 lung; RPMI-8226 leukemia; SNB-19 CNS.
Test in all cases: NCI-60 cell line screen, 48 h

Molecules are shown by their SMILES. Several values for one entry are separate records, joined by “and”; a condition that tells them apart may be missing. Equal values may be shown once.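 Interpolation was linear, between the two tested concentrations surrounding the appropriate level; five concentrations were tested over 48 hours in 96-well plates. Abbreviation: GI50, concentration required for 50% inhibition of growth. TGI is the concentration that stops growth completely.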

For `O=C(C(Cl)=C(N1CCOCC1)N1CCOCC1)C(Cl)Cl`, the TGI in the experiment on ACHN renal, in the experiment on BT-549 breast, in the experiment on CCRF-CEM leukemia, in the experiment on COLO 205 colon, in the experiment with HL-60(TB) leukemia and with MALME-3M melanoma was more than 100 µM throughout. Also, the TGI in the experiment on MCF7 breast, with NCI-H23 lung, in the experiment on RPMI-8226 leukemia and in the experiment with SNB-19 CNS was more than 100 µM in each case.

Consider `C[C@H]1SC(c2ccc(Cl)cc2Cl)N(NC(=O)c2ccncc2)C1=O` (some centres not stated), for which the TGI was 90.7 µM in the experiment on ACHN renal; more than 100 µM in the experiment on BT-549 breast; more than 100 µM with CCRF-CEM leukemia; more than 100 µM in the experiment on COLO 205 colon; more than 100 µM in the experiment on HL-60(TB) leukemia; more than 100 µM in the experiment on MALME-3M melanoma. Also, the TGI in the experiment on MCF7 breast, in the experiment with NCI-H23 lung, in the experiment on RPMI-8226 leukemia and with SNB-19 CNS was more than 100 µM each time.

For the molecule `Cc1ccc(/C=C2\Cc3c(C)cc(C)cc3C2=O)c(C(=O)O)c1`, the TGI with ACHN renal is more than 100 µM; in the experiment with BT-549 breast, more than 100 µM; in the experiment on CCRF-CEM leukemia, more than 100 µM; with COLO 205 colon, 98.2 µM; in the experiment with HL-60(TB) leukemia it was 65.5 µM; in the experiment on MALME-3M melanoma, more than 100 µM. Besides, the TGI with MCF7 breast was more than 100 µM; in the experiment on NCI-H23 lung, more than 100 µM; in the experiment on RPMI-8226 leukemia, 53.1 µM; in the experiment with SNB-19 CNS it was more than 100 µM.

`C#CCN(Cc1ccc2nc(OC)c(OC)nc2c1)c1cc(OC)c(OC)c(OC)c1`: the TGI in the experiment on ACHN renal is more than 100 µM; with BT-549 breast, more than 72.4 µM; with CCRF-CEM leukemia, more than 100 µM; in the experiment with COLO 205 colon, 41.5 µM; in the experiment on HL-60(TB) leukemia, 43.5 µM; with MALME-3M melanoma it was 83.8 µM. Moreover, the TGI with MCF7 breast was more than 66 µM; with NCI-H23 lung, 46.2 µM; with RPMI-8226 leukemia, 28.3 µM; with SNB-19 CNS, more than 80.9 µM.

On to `CC(C)(C)c1cc(C(=O)/C=C/c2ccc3c(c2)OCO3)cc(C(C)(C)C)c1O`, for which the TGI with ACHN renal is more than 100 µM; with BT-549 breast, 27.2 µM; with CCRF-CEM leukemia, 16.3 µM; in the experiment on COLO 205 colon it was 13.2 µM; in the experiment on HL-60(TB) leukemia, 13.9 µM; in the experiment on MALME-3M melanoma it was more than 53.4 µM. Also, the TGI is more than 100 µM with MCF7 breast, more than 86.4 µM in the experiment with NCI-H23 lung, 16.9 µM with RPMI-8226 leukemia and more than 70.2 µM in the experiment on SNB-19 CNS.

Turning to `NC(=O)N/N=C1\CC2C3CC4C2C4C13` (configuration not stated), the TGI with ACHN renal, in the experiment with BT-549 breast, with CCRF-CEM leukemia, in the experiment on COLO 205 colon, in the experiment with HL-60(TB) leukemia and with MALME-3M melanoma was more than 100 µM each time. Further, the TGI with MCF7 breast, in the experiment with NCI-H23 lung, in the experiment on RPMI-8226 leukemia and in the experiment on SNB-19 CNS was more than 100 µM each time.

Regarding `CC(=O)c1ccc2c(c1)CC1(C2)Cc2ccccc2C1=O` (configuration not stated), the TGI with ACHN renal was more than 100 µM; in the experiment with BT-549 breast, more than 100 µM; with CCRF-CEM leukemia, more than 100 µM; with COLO 205 colon, more than 100 µM; with HL-60(TB) leukemia, 70 µM; with MALME-3M melanoma it was more than 100 µM. Also, the TGI in the experiment on MCF7 breast, in the experiment with NCI-H23 lung, in the experiment on RPMI-8226 leukemia and in the experiment on SNB-19 CNS was more than 100 µM throughout.

Turning to `CC1(C)[C@H]2CC[C@@]13C(=O)N1C(=O)O[C@@H]([C@H]1Cl)C(Cl)(COCc1ccccc1)C(=O)OCCO[C@H]3C2` (some centres not stated), the TGI in the experiment with ACHN renal was more than 100 µM; in the experiment on BT-549 breast it was more than 100 µM; in the experiment on CCRF-CEM leukemia, more than 100 µM; with COLO 205 colon it was 36.6 µM; with HL-60(TB) leukemia, more than 100 µM; in the experiment on MALME-3M melanoma, more than 100 µM. Besides, the TGI in the experiment with MCF7 breast, in the experiment on NCI-H23 lung, in the experiment with RPMI-8226 leukemia and with SNB-19 CNS was more than 100 µM each time.

For `Cc1ccc(C2=CC(=O)/C(=C\C(=O)c3ccc(Cl)cc3)O2)cc1`, the TGI with ACHN renal was 17.3 µM; with BT-549 breast, 5.54 µM; with CCRF-CEM leukemia, more than 100 µM; in the experiment with COLO 205 colon it was 26.1 µM; in the experiment on HL-60(TB) leukemia, 4.74 µM; with MALME-3M melanoma, 32.7 µM. The TGI in the experiment on MCF7 breast is 25.6 µM; in the experiment with NCI-H23 lung, 55.3 µM; in the experiment with RPMI-8226 leukemia, 6.31 µM; in the experiment with SNB-19 CNS it was more than 100 µM.

In the case of `O=c1cc(-c2ccccc2)oc2c(-c3cc(Cl)cc4c(=O)cc(-c5ccccc5)oc34)cc(Cl)cc12`, the TGI was more than 100 µM in the experiment with ACHN renal; more than 100 µM in the experiment with BT-549 breast; 54.6 µM with CCRF-CEM leukemia; more than 100 µM in the experiment on COLO 205 colon; more than 100 µM in the experiment with HL-60(TB) leukemia; 75.8 µM in the experiment on MALME-3M melanoma. In addition, the TGI in the experiment with MCF7 breast, in the experiment with NCI-H23 lung, in the experiment with RPMI-8226 leukemia and with SNB-19 CNS was more than 100 µM in each case.

Take `O=C(Nc1noc(-c2ccccc2)n1)c1ccccc1CNc1noc(-c2ccccc2)n1`: the TGI in the experiment on ACHN renal, in the experiment on BT-549 breast, in the experiment on CCRF-CEM leukemia, in the experiment on COLO 205 colon, in the experiment with HL-60(TB) leukemia and with MALME-3M melanoma was more than 100 µM throughout. The TGI in the experiment on MCF7 breast, in the experiment on NCI-H23 lung, in the experiment with RPMI-8226 leukemia and in the experiment with SNB-19 CNS was more than 100 µM in each case.

Turning to `O=c1[nH]c(=O)n(C2CC(O)C(CO)O2)cc1OCc1ccccc1` (configuration not stated), the TGI in the experiment with ACHN renal, in the experiment with BT-549 breast, with CCRF-CEM leukemia, in the experiment on COLO 205 colon, in the experiment on HL-60(TB) leukemia and in the experiment with MALME-3M melanoma was more than 100 µM throughout. Moreover, the TGI in the experiment with MCF7 breast, in the experiment on NCI-H23 lung, in the experiment on RPMI-8226 leukemia and in the experiment on SNB-19 CNS was more than 100 µM in each case.

As for `CNC(=O)CCCNC(=O)CCCC(=O)N(C)C`, the TGI in the experiment with ACHN renal, in the experiment on BT-549 breast, in the experiment on CCRF-CEM leukemia, with COLO 205 colon, with HL-60(TB) leukemia and with MALME-3M melanoma was more than 100 µM throughout. In addition, the TGI with MCF7 breast, in the experiment on NCI-H23 lung, in the experiment with RPMI-8226 leukemia and with SNB-19 CNS was more than 100 µM each time.

As for `O=[N+]([O-])c1ccc2c(c1)C1=NN(c3ccccc3)C(c3ccccc3Br)C1CCC2` (configuration not stated), the TGI is more than 50 µM in the experiment with ACHN renal; 35 µM with BT-549 breast; 27.4 µM with CCRF-CEM leukemia; more than 50 µM with COLO 205 colon; 24.1 µM in the experiment with HL-60(TB) leukemia; more than 50 µM with MALME-3M melanoma. The TGI is more than 50 µM with MCF7 breast, more than 50 µM with NCI-H23 lung, 48.4 µM in the experiment with RPMI-8226 leukemia and more than 50 µM in the experiment on SNB-19 CNS.

Take `C=C1c2nc3ccccc3n2C=C(c2ccc(Cl)cc2)N1c1ccc(OC)cc1`: the TGI in the experiment with ACHN renal is 13.5 µM; with BT-549 breast it was 6.88 µM; with CCRF-CEM leukemia, more than 100 µM; in the experiment with COLO 205 colon, more than 100 µM; in the experiment on HL-60(TB) leukemia, more than 100 µM; with MALME-3M melanoma, 13.3 µM. The TGI with MCF7 breast is 31.8 µM; in the experiment with NCI-H23 lung, 22.9 µM; in the experiment with RPMI-8226 leukemia, more than 100 µM; with SNB-19 CNS it was 12.7 µM.

In the case of `C=C(CN(C)C)C(=O)c1ccccc1[N+](=O)[O-]`, the GI50 in the experiment with ACHN renal was 3.79 µM; with BT-549 breast, 24.3 µM; with CCRF-CEM leukemia it was 2.7 µM and 2.18 µM; in the experiment with MALME-3M melanoma, 4.74 µM; in the experiment with MCF7 breast, 5.02 µM; with NCI-H23 lung, 20.7 µM. Moreover, the GI50 in the experiment with RPMI-8226 leukemia is 15.1 µM and 2.55 µM; in the experiment on SNB-19 CNS it was 23.3 µM. Also, the TGI in the experiment on ACHN renal was 29.5 µM and 14.8 µM; with BT-549 breast, 30.6 µM and 60.4 µM; in the experiment on CCRF-CEM leukemia, 8.06 µM; in the experiment with COLO 205 colon it was 21.2 µM; in the experiment on HL-60(TB) leukemia, 8.2 µM; in the experiment with MALME-3M melanoma it was 20.2 µM and 21.1 µM. The TGI is 31.1 µM and 24.5 µM with MCF7 breast; 32.7 µM and 66.1 µM in the experiment on NCI-H23 lung; > 68.2 µM and 47.7 µM in the experiment on SNB-19 CNS.

In the case of `COC(=O)[C@H](Cc1ccccc1)NC(=O)CCCCCCC(=O)NO`, the TGI in the experiment on ACHN renal was more than 100 µM; with BT-549 breast, more than 100 µM; in the experiment with CCRF-CEM leukemia, more than 100 µM; in the experiment with COLO 205 colon it was more than 100 µM; in the experiment with HL-60(TB) leukemia it was more than 100 µM; with MALME-3M melanoma, 38.6 µM. Moreover, the TGI with MCF7 breast, with NCI-H23 lung, with RPMI-8226 leukemia and with SNB-19 CNS was more than 100 µM throughout.

The values are drawn from PubChem BioAssay (NCI).
